Here are results for two molecules from patent publication US20250073234A1, “COMBINATION THERAPIES INCLUDING PARP1 INHIBITORS” (Cornell University, priority 2022, published 2025).

In test [1] the test system is WPMY-1 cells. Briefly: Intracellular NAD levels in WPMY-1 cells. The settings on record: stromal fibroblasts treated with lactate vs untreated. It counts as cell-based, human. The protocol:
Quantification was carried out using the NAD/NADH quantification colorimetric kit (Cat. No. MAK037, Sigma) according to the manufacturer's protocol. At least three independent measurements were carried out.

The test system of test [2] is PARP-1. Briefly: Poly(ADP-ribosyl)ation in WPMY-1 cells (immunoblot, immunoprecipitation). In kind it is cell-based, human. The procedure:
Cells for protein analysis were lysed in RIPA buffer (20 mM Tris-HCl, […], 2 mM EDTA, 1% Triton-X, 10% glycerol, 0.1% SDS, and 0.5% sodium deoxycholate) with phosphatase and protease inhibitors. For immunoprecipitations, cells were lysed in IP lysis buffer (100 mM NaCl, 25 mM Tris, 1% Triton-X, 10% glycerol, with phosphatase and protease inhibitors) and immunoprecipitated with 25 μl of 50% slurry of protein […] beads (Bioworld). Immunoprecipitates were washed three times with lysis buffer, once with high salt (500 mM NaCl), and once more with lysis buffer. Protein concentration in lysates was determined by using Protein Assay Kit (Bio-Rad). Cell extracts and immunoprecipitated proteins were denatured, subjected to SDS-PAGE, transferred to PVDF membranes (GE Healthcare). After blocking with 5% nonfat dry milk in Tris-buffered saline and 0.1% Tween (TBS-T), the membranes were incubated with the specific antibodies (as listed in Key Resources Table) overnight at 4° C. After 2 hours incubation with the appropriate horseradish peroxidase-conjugated antibodies, the immune complexes were detected by chemiluminescence (Thermo Scientific) or Near-infrared fluorescence (LI-COR).
(In western blotting, separated proteins are transferred to a membrane and probed.)

Test [3] deals with WPMY-1 cells. The test can be described thus: ATAC-seq chromatin accessibility in WPMY-1 cells. It counts as cell-based, human. The settings on record: lactate-treated WPMY-1 cells, 48 h. The procedure:
The cell pellet was resuspended in 50 μl lysis buffer and then spun down 500×g for 10 minutes at 4° C. The nuclei pellet was resuspended into 50 μl transposition reaction mixture containing Tn5 transposase from Nextera DNA Library Prep Kit (Illumina) and incubated at 37° C. for 30 minutes. Then the transposase-associated DNA was purified using MinElute PCR purification kit (QIAGEN). To amplify the library, the DNA was first amplified for 5 cycles using indexing primer from Nextera kit and NEBNext High-Fidelity 2×PCR master mix. To reduce the PCR amplification bias, 5 μl of amplified DNA after the first 5 cycles was used to do qPCR of 20 cycles to decide the number of cycles for the second round of PCR. Usually, the maximum cycle of the second round of PCR is 5 cycles. Then the total amplified DNA was size selected to fragments less than 800 bp using SPRI beads. Quantification of the ATAC-seq library was done with QuBit. The size of the pooled library was examined by TapeStation. Barcoded ATAC-seq libraries were pooled and paired end sequenced (sX75) on the Illumina NextSeq 500 using the High output V2.5 kit (Illumina Inc., San Diego, CA).
Peaks were annotated with ChipSeeker R package. […].

The subject of test [4] is AP-1. The test can be described thus: AP-1-driven luciferase reporter in WPMY-1 cells. It counts as cell-based, human. The settings on record: lactate 48 h.
The subject of test [5] is metastatic pancreas cancer. The settings on record: cited from earlier work.
The test system of test [6] is PC3 + WPMY-1 tumors. Briefly: Subcutaneous xenograft co-implantation of PC3 and WPMY-1 cells in NSG mice. It counts as in vivo, mouse. The settings on record: Olaparib 40 mg/Kg + PEGPH20 0.0375 mg/Kg, twice a week, 2 weeks. The protocol:
For mouse xenografts using PC3 PCa cells and sgC or sgAP-1 WPMY-1 stromal cells. 7 weeks old NSG mice were surgical castrated and let androgen levels drop for 10 days. Cells were trypsinized washed two times in PBS and resuspend in DMEN. 1×10^6 PC3 and 1×10^6 sgC or sgAP1-A WPMY-1 for each mouse were resuspended in 100 μl DMEM: Matrigel (1:1) and injected subcutaneously into both flanks of immunocompromised NSG mice (PC3+sgC WPMY-1 n=4; PC3+sgAP-1 WPMY-1 n=4). Tumors were allowed to grow for 1 month. Mice were euthanized and tumors were collected and analyzed histologically. For Olaparib treatment in mouse xenografts. PC3 PCa cells and WPMY-1 stromal cells were trypsinized washed two times in PBS and resuspend in DMEN. 1×10^6 PC3 and 1×10^6 WPMY-1 for each mouse were resuspended in 100 μl DMEM: Matrigel (1:1) and injected subcutaneously into both flanks of immunocompromised NSG mice. Tumors were allowed to grow for 14 days, and mouse were randomly divided to receive vehicle, n=10, Olaparib (40 mg/kg, 2 days each week, i.p.), n=10 or Olaparib (40 mg/kg, 2 days each week, i.p.)+_PEGPH20 (0.0375 mg/Kg, 2 days each week, retroorbital injection) n=10. Tumors were measured twice a week. Mice were euthanized 14 days after the initiation of the treatment and tumors were collected and analyzed histologically. For Olaparib treatment in mice, 13 weeks-old male TRAMP^+, n=18, were randomly distributed to receive vehicle, n=9, or Olaparib (40 mg/kg/, 5 days each week, i.p.), n=9. Mice were euthanized 1 month after the initiation of the treatment. Prostate and other organs were collected and analyzed histologically.
Tissues from indicated mice were isolated, fixed in zinc buffered formalin overnight at 4° C., dehydrated, and embedded in paraffin. Sections (5 μm) were stained with hematoxylin and eosin (H&E). For immunohistochemistry, sections were deparaffinized, rehydrated, and then treated for antigen retrieval. […] Stained sections were analyzed with a Zeiss light microscope supplemented with Zen 3.3 Bule edition software.

The subject of test [7] is PC3 cells. Briefly: Trans-well migration and invasion of PC3 cells co-cultured with pre-treated WPMY-1 cells. It counts as cell-based, human. The settings on record: Olaparib 10 μM + PEGPH20 2.5 μg/ml, basal and ADT. The procedure: For co-culture migration and invasion assays, 8×10^4 WPMY-1 cells were plated onto the lower chamber of a 24 well plate in DMEN containing 10% FBS (basal conditions) or 10% charcoal stripped FBS (ADT conditions) and vehicle (DMSO) or Olaparib 10 μM or Olaparib 10 μM+PEGPH20 2.5 μg/ml for 48 hours. 5×10^4 PC3 were seeded in a transwell chamber (Corning Biocoat control inserts) or in a transwell invasion chamber (Corning BioCoat Matrigel Invasion Chambers), both with 8 μm membrane. PC3 were allowed to migrate or invade for 20 hours at 37° C., 5% CO2. Cells were fixed in cold methanol and stained with crystal violet.

Test [8] relates to PC3 cells. The test can be described thus: Click-iT EdU proliferation of PC3 cells treated with CM from WPMY-1 cells. It counts as cell-based, human. The settings on record: Olaparib 10 μM + PEGPH20 2.5 μg/ml or CM incubation with Galunisertib 10 μM. The procedure: WPMY-1 cells were cultured in DMEN containing 10% FBS (basal conditions) or 10% charcoal stripped FBS (ADT conditions), then the cells were treated with vehicle (DMSO), Olaparib 10 μM, Olaparib 10 μM+PEGPH20 2.5 μg/ml for 96 hours, refreshing media and stimuli at 48 hours, conditioned media (CM) was generated by collecting supernatant on day 4. PC3 cells were seeded in a black-walled well (Thermo Fisher) and serum starved overnight. CM from WPMY-1 cells was added to PC3 for 24 h. PC3 were exposed to EdU incorporation for the last 2 hours. Proliferating cells were detected using Click-iT EdU Alexa fluor 488 (Thermo Fisher) following the manufacturer's instructions. Pictures were taken using EVOS M5000 Imaging System and EdU positive were measured using Fiji (Schindelin et al., 2012).

The subject of test [9] is hyaluronan (HA) in WPMY-1 cells. The test can be described thus: Immunofluorescence for HABP (HA deposition) in WPMY-1 cells. The settings on record: Olaparib 10 μM + PEGPH20 2.5 μg/ml, 96 h, basal and ADT. In kind it is cell-based, human. The protocol: WPMY-1 cells were seeded in coverslides and cultured in DMEN containing 10% FBS (basal conditions) or 10% charcoal stripped FBS (ADT conditions), then the cells were treated with vehicle (DMSO), Olaparib 10 μM, Olaparib 10 μM+PEGPH20 2.5 μg/ml for 96 hours, refreshing media and stimuli at 48 hours. Cells were fixed in PFA 4% for 20 minutes at room temperature, permeabilize and blocked following abcam's immunofluorescence protocol. Then, cells were incubated overnight with Hyaluronic acid binding protein (HABP) at 4° C. Cells were incubated with Alexa conjugated streptavidin and mounted in slides with mowiol. Pictures were taken by Zeiss LSM 710 NLO Confocal Microscope.

`CC(O)C(=O)O` (stereo not shown) [lactate]: in test [1], the “NAD+ levels” value is listed as “lower than in untreated cells”. Besides, the “poly(ADP-ribosyl)ation of c-JUN and c-FOS” value in [2] (lactate 48 h, immunoprecipitation) was “impaired the poly(ADP-ribosyl) ation of c-JUN and c-FOS”. The “total poly(ADP-ribosyl)ation levels” value in test [2] (lactate-treated WPMY-1 cells) is listed as “reduced total poly(ADP-ribosyl) ation levels”. Further, the chromatin accessibility result in [3] was “widespread decrease in chromatin accessibility”. For the same molecule, the “AP-1-driven luciferase reporter activity” value in test [4] is “repressed an AP-1-driven luciferase reporter”.

B1: PEGPH20: PEGylated Recombinant Human Hyaluronidase, clinical-grade recombinant hyaluronidase (provided by Halozyme Therapeutics) (protein, UniProt P38567 36-490, looked up)
Hyaluronidase PH-20: LNFRAPPVIPNVPFLWAWNAPSEFCLGKFDEPLDMSLFSFIGSPRINATGQGVTIFYVDRLGYYPYIDSITGVTVNGGIPQKISLQDHLDKAKKDITFYMPVDNLGMAVIDWEEWRPTWARNWKPKDVYKNRSIELVQQQNVQLSLTEATEKAKQEFEKAGKDFLVETIKLGKLLRPNHLWGYYLFPDCYNHHYKKPGYNGSCFNVEIKRNDDLSWLWNESTALYPSIYLNTQQSPVAATLYVRNRVREAIRVSKIPDAKSPLPVFAYTRIVFTDQVLKFLSQDELVYTFGETVALGASGIVIWGTLSIMRSMKSCLLLDNYMETILNPYIINVTLAAKMCSQVLCQEQGVCIRKNWNSSDYLHLNPDNFAIQLEKGGKFTVRGKPTLEDLEQFSEKFYCSCYSTLSCKEKADVKDTDAVDVCIADGVCIDAFLKPPMETEEPQIFYNASPSTLS
modifications: PEGylated
Regarding B1, in test [5], the “primary endpoint of phase 3 trial” value is recorded as “failed to meet the primary endpoint”. Further, in [6], the “anti-tumor activity of the combination (tumor volume)” value is given as “enhanced Olaparib anti-tumor activity”. Besides, the “Olaparib-enhanced migration of PC3 cells” value in test [7] is reported as “completely blocked the enhanced migration of PC3 cells”. For the same molecule, the “Olaparib-induced proliferation (EdU)” value in test [8] is reported as “blocked Olaparib-induced proliferation in stromal cells”. Also, in test [9], the “HA deposition in response to Olaparib” value is on record as “efficiently degraded HA deposition”.
